Data: ChEMBL document CHEMBL3351872, “2- and 3-substituted imidazo[1,2-a]pyrazines as inhibitors of bacterial type IV secretion” (Bioorg Med Chem, 2014)

Experiment: Inhibition of Helicobacter pylori VirB11 HP0525 ATPase expressed in Escherichia coli assessed as reduction in inorganic phosphate release by colorimetric ATPase assay

IC50 | SMILES
77 µM | Cc1ccc(S(=O)(=O)Nc2nccn3c(-c4ccc5ccccc5c4)cnc23)cc1
6 µM | Cc1ccc(S(=O)(=O)Nc2ccc(Nc3nc(Br)cn4cc(-c5ccc6ccccc6c5)nc34)cc2)cc1
77 µM | Cc1ccc(S(=O)(=O)NCCNc2nc(Br)cn3cc(-c4ccc5ccccc5c4)nc23)cc1
